Measurements published in publication PMC9011347, “Small-Molecule Inhibitors Targeting Lipolysis in Human Adipocytes” (Journal of the American Chemical Society, 2022).

System: HepG2^AKO cells
Assay: Seahorse cellular respiration (OCR) in ATGL knockout cells
Assay type: cell-based, human
Conditions: NG-497 40 μM, galactose medium
Description: (a) HepG2 cells were treated with NG-497 (40 μM) or DMSO as control and oxygen consumption rate (OCR) was determined in Seahorse growth medium supplemented with glucose (25 mM) using the SeaHorse XF96 extracellular flux analyzer. OCR was determined after subsequent addition of 1 μM Oligomycin (ATP-synthase inhibitor), 1 μM FCCP (uncoupler), and 1 μM antimycin/rotenone (electron transport chain inhibitors). (b) Statistical analysis of basal respiration (BR), maximal respiration (MR), proton leak (PL), ATP production (ATPP), spare respiratory capacity (SRC), and nonmitochondrial oxygen consumption (NMOC) of control and NG-497-treated cells. (c) Extracellular acidification rate (ECAR) and (d) OCR of HepG2 cells were determined in Seahorse growth medium supplemented with glucose (25 mM) or galactose (10 mM). […] Growth of cells expressing (HepG2^control) or lacking functional ATGL (HepG2^AKO) was determined using a BioRad cell analyzer. ATGL expression was analyzed by Western blotting analysis using an anti-ATGL antibody and GAPDH as a loading control (inset). (h) Acylglycerol content of HepG2^control and HepG2^AKO cells was determined by a commercial kit (TG Infinity reagent, Thermo Fisher Scientific). […] Statistical significance was determined via Student’s t test (*p < 0.05; **p < 0.01; ***p < 0.001) or ANOVA followed by Bonferroni post hoc test (^#p < 0.05; ^##p < 0.01; ^###p < 0.001). […]

CCOc1ccc(-c2cc(OC)cc(C(=O)OC(C)C)n2)cc1 [NG-497]
effect on respiration: no effect on respiration
